Reference: patent EP4782437A1, “HETEROARYL COMPOUND, AND PREPARATION METHOD THEREFOR AND USE THEREOF IN MEDICINE” (Jiangsu Hengrui Pharmaceuticals Co., Ltd., priority 2023, dated 2025)

Molecular target: hERG potassium channels (Homo sapiens, UniProt Q12809)
Experiment: hERG channel inhibition, automated patch-clamp in HEK293-hERG stable transfected cell line
Conditions: read-out: IC50 values of blocking effects on hERG potassium currents, whole-cell patch-clamp, tail currents

Sequence of hERG potassium channels (Q12809 whole entry): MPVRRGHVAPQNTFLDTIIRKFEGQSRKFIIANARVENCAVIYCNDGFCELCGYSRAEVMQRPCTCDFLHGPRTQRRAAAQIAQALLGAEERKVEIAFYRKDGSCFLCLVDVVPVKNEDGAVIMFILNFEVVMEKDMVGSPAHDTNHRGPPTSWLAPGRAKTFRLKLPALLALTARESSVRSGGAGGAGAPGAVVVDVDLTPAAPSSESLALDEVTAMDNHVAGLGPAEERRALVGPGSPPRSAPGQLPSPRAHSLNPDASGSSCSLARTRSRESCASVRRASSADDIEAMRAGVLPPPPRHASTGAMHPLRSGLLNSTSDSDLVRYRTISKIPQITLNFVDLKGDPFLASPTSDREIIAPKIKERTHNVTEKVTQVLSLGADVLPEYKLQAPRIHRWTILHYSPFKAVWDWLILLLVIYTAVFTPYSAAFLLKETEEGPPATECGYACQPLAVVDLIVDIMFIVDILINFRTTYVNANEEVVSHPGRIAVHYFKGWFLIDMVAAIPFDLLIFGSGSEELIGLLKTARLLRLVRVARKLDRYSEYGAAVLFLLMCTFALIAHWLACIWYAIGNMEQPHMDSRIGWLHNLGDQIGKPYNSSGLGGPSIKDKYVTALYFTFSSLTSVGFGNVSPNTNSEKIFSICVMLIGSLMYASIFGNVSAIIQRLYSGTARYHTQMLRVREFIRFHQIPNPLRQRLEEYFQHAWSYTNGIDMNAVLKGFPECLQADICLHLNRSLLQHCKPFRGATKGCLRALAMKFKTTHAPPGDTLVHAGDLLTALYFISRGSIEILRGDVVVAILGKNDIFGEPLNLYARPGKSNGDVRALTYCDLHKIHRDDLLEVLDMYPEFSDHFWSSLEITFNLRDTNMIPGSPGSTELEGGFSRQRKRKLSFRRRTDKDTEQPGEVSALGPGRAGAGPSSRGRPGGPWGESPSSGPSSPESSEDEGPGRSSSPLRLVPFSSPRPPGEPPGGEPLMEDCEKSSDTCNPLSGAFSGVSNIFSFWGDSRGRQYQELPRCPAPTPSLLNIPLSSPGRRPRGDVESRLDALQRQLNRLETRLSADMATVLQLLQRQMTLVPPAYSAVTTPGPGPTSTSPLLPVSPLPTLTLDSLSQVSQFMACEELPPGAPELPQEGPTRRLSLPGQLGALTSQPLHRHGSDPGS

Compound: C=C(C)C(=O)NCCOc1c(N)ncnc1-c1cc(F)cc(NC(=O)c2sc3c(c2F)CC2(CC2)C3)c1C [Example 26-1, N-(3-(6-amino-5-(2-(N-methacrylamido)ethoxy)pyrimidin-4-yl)-5-fluoro-2-methylphenyl)-3-fluoro-4,6-dihydrospiro[cyclopenta[b]thiophene-5,1'-cyclopropane]-2-carboxamide]
- IC50: 14 µM
